Experimental findings from patent US9527885B2, “Hepatitis C virus inhibitors” (BRISTOL-MYERS SQUIBB COMPANY, priority 2011, dated 2016) are described below.

Experiment [1] has as its system HCV genotype 1a (H77 strain) replicon in HUH-7 cells. The experiment in a line: HCV replicon luciferase reporter assay, genotype 1a. Format: cell-based. The settings on record: Hepatitis C virus, Huh-7, 72 h, HCV genotype 1a replicon luciferase, 3 days incubation, read-out: LE_1a (EC50, range). The method in brief: (§1)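 Twenty-point, threefold compound titrations (0.5% DMSO) were incubated 3 days at 37 °C with 3.0×10^3 HUH-7 cells/well in 4% FCS. The cells stably carried luciferase replicons: genotype 1b Con1 (S1179I) or 1a H77 (NS3 P1496L, NS5A S2204I). Renilla signal was read after 2 h with 7.5 μM EnduRen, and EC50 was taken from a four-parameter logistic fit. Cytotoxicity (CC50) was measured by Cell Titer-Blue, 8 h.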
A general note: A replicon is a self-replicating genome or part of one, used to study replication in cells.

Experiment [2] deals with HCV genotype 1b (Con1) replicon in HUH-7 cells. Briefly: HCV replicon luciferase reporter assay, genotype 1b. Format: cell-based. The following applies: Hepatitis C virus, 72 h, HCV genotype 1b replicon luciferase, 3 days incubation, read-out: LE_1b (EC50, range). The procedure, abridged: as §1

Like-named read-outs stand apart in the source and are kept apart here.

By EC50 is commonly meant the concentration needed to bring the measured effect to its halfway point. For the molecule `CCOc1ccc2c(O[C@@H]3C[C@H]4C(=O)N[C@]5(C(=O)NS(=O)(=O)C6(C)CC6)C[C@H]5/C=C\CC[C@@H](C)C[C@@H](C)[C@H](NC(=O)O[C@@H]5C[C@@H]6C[C@@H]6C5)C(=O)N4C3)nccc2c1` [Compound 5138, (1R,3r,5S)-bicyclo[3.1.0]hexan-3-yl ((2R,6S,7R,9R,13 aS,14aR,16aS,Z)-2-((6-ethoxyisoquinolin-1-yl)oxy)-7,9-dimethyl-14a-(((1-methylcyclopropyl)sulfonyl)carbamoyl)-5,16-dioxo-1,2,3,5,6,7,8,9,10,11,13a,14,14a,15,16,16a-hexadecahydrocyclopropa[e]pyrrolo[1,2-a][1,4]diazacyclopentadecin-6-yl)carbamate], the concentration for a half-maximal effect (EC50) in experiment [1] (class symbols) and in experiment [2] (class symbols) was under 5.46 nM throughout.
Turning to `CCCOc1ccc2c(O[C@@H]3C[C@H]4C(=O)N[C@]5(C(=O)NS(=O)(=O)C6CC6)C[C@H]5/C=C\CC[C@@H](C)C[C@@H](C)[C@H](NC(=O)OC(C(F)(F)F)(C(Cl)(Cl)Cl)C(Cl)(Cl)Cl)C(=O)N4C3)nccc2c1` [Compound 5173, 1,1,1,3,3,3-hexachloro-2-(trifluoromethyl)propan-2-yl ((2R,6S,7R,9R,13aS,14aR,16aS,Z)-14a-((cyclopropylsulfonyl)carbamoyl)-7,9-dimethyl-5,16-dioxo-2-((6-propoxyisoquinolin-1-yl)oxy)-1,2,3,5,6,7,8,9,10,11,13a,14,14a,15,16,16a-hexadecahydrocyclopropa[e]pyrrolo[1,2-a][1,4]diazacyclopentadecin-6-yl)carbamate], the 50% effective concentration (EC50) in experiment [1] (range class) and in experiment [2] (range class) was under 5.46 nM throughout.
For the molecule `[2H]C([2H])([2H])C(OC(=O)N[C@@H]1C(=O)N2C[C@H](Oc3nccc4cc(OC)ccc34)C[C@H]2C(=O)N[C@]2(C(=O)NS(=O)(=O)C3(C)CC3)C[C@H]2/C=C\CC[C@H](C)C[C@H]1C)(C([2H])([2H])[2H])C(F)(F)F` [Compound 5174, 1,1,1,3,3,3-hexadeutero-2-(trifluoromethyl)propan-2-yl ((2R,6S,7R,9S,13aS,14aR,16aS,Z)-2-((6-methoxyisoquinolin-1-yl)oxy)-7,9-dimethyl-14a-(((1-methylcyclopropyl)sulfonyl)carbamoyl)-5,16-dioxo-1,2,3,5,6,7,8,9,10,11,13a,14,14a,15,16,16a-hexadecahydrocyclopropa[e]pyrrolo[1,2-a][1,4]diazacyclopentadecin-6-yl)carbamate], the EC50 in experiment [1] (range class) and in experiment [2] (range class) was under 5.46 nM each time.
On to `[2H]C([2H])([2H])C(OC(=O)N[C@@H]1C(=O)N2C[C@H](Oc3nccc4cc(OC)ccc34)C[C@H]2C(=O)N[C@]2(C(=O)NS(=O)(=O)C3(C)CC3)C[C@H]2/C=C\CC[C@@H](C)C[C@H]1C)(C([2H])([2H])[2H])C(F)(F)F` [Compound 5175, 1,1,1,3,3,3-hexadeutero-2-(trifluoromethyl)propan-2-yl ((2R,6S,7R,9R,13aS,14aR,16aS,Z)-2-((6-methoxyisoquinolin-1-yl)oxy)-7,9-dimethyl-14a-(((1-methylcyclopropyl)sulfonyl)carbamoyl)-5,16-dioxo-1,2,3,5,6,7,8,9,10,11,13a,14,14a,15,16,16a-hexadecahydrocyclopropa[e]pyrrolo[1,2-a][1,4]diazacyclopentadecin-6-yl)carbamate], for which the concentration for a half-maximal effect (EC50) in experiment [1] (range class) and in experiment [2] (range class) was under 5.46 nM each time.
Take `[2H]C([2H])([2H])C(C)(OC(=O)N[C@@H]1C(=O)N2C[C@H](Oc3nccc4cc(OC)ccc34)C[C@H]2C(=O)N[C@]2(C(=O)NS(=O)(=O)C3(C)CC3)C[C@H]2/C=C\CC[C@H](C)C[C@H]1C)C([2H])([2H])[2H]` [Compound 5176, 1,1,1,3,3,3-hexadeutero-2-methylpropan-2-yl ((2R,6S,7R,9S,13aS,14aR,16aS,Z)-2-((6-methoxyisoquinolin-1-yl)oxy)-7,9-dimethyl-14a-(((1-methylcyclopropyl)sulfonyl)carbamoyl)-5,16-dioxo-1,2,3,5,6,7,8,9,10,11,13a,14,14a,15,16,16a-hexadecahydrocyclopropa[e]pyrrolo[1,2-a][1,4]diazacyclopentadecin-6-yl)carbamate]: the EC50 in experiment [1] (range class) was 4.82 to 103 nM; in experiment [2] (range class), under 5.46 nM.
With `[2H]C([2H])([2H])C(C)(OC(=O)N[C@@H]1C(=O)N2C[C@H](Oc3nccc4cc(OC)ccc34)C[C@H]2C(=O)N[C@]2(C(=O)NS(=O)(=O)C3(C)CC3)C[C@H]2/C=C\CC[C@@H](C)C[C@H]1C)C([2H])([2H])[2H]` [Compound 5177, 1,1,1,3,3,3-hexadeutero-2-methylpropan-2-yl ((2R,6S,7R,9R,13aS,14aR,16aS,Z)-2-((6-methoxyisoquinolin-1-yl)oxy)-7,9-dimethyl-14a-(((1-methylcyclopropyl)sulfonyl)carbamoyl)-5,16-dioxo-1,2,3,5,6,7,8,9,10,11,13a,14,14a,15,16,16a-hexadecahydrocyclopropa[e]pyrrolo[1,2-a][1,4]diazacyclopentadecin-6-yl)carbamate], the EC50 in experiment [1] (range class) and in experiment [2] (range class) was under 5.46 nM throughout.
`C[C@@H]1CC/C=C\[C@@H]2C[C@@]2(C(=O)NS(=O)(=O)C2CC2)NC(=O)[C@@H]2C[C@@H](Oc3nc4ccccc4c4ccccc34)CN2C(=O)[C@@H](NC(=O)OC(C)(C)C(F)(F)F)[C@H](C)C1` [Compound 5185, 1,1,1-trifluoro-2-methylpropan-2-yl ((2R,6S,7R,9R,13aS,14aR,16aS,Z)-14a-((cyclopropylsulfonyl)carbamoyl)-7,9-dimethyl-5,16-dioxo-2-(phenanthridin-6-yloxy)-1,2,3,5,6,7,8,9,10,11,13a,14,14a,15,16,16a-hexadecahydrocyclopropa[e]pyrrolo[1,2-a][1,4]diazacyclopentadecin-6-yl)carbamate]: the half-maximal effective concentration (EC50) in experiment [1] (range class) and in experiment [2] (range class) was under 5.46 nM in each case.
For `COc1ccc2c(O[C@@H]3C[C@H]4C(=O)N[C@]5(C(=O)NS(=O)(=O)C6CC6)C[C@H]5/C=C\CC[C@H](C)C[C@@H](C)[C@H](NC(=O)O[C@@H]5C[C@@H]6C[C@@H]6C5)C(=O)N4C3)nc(-c3ccc(N4CCOCC4)cc3)cc2c1` [Compound 5194, (1R,3r,5S)-bicyclo[3.1.0]hexan-3-yl ((2R,6S,7R,9S,13aS,14aR,16aS,Z)-14a-((cyclopropylsulfonyl)carbamoyl)-2-((6-methoxy-3-(4-morpholinophenyl)isoquinolin-1-yl)oxy)-7,9-dimethyl-5,16-dioxo-1,2,3,5,6,7,8,9,10,11,13a,14,14a,15,16,16a-hexadecahydrocyclopropa[e]pyrrolo[1,2-a][1,4]diazacyclopentadecin-6-yl)carbamate], the concentration giving a half-maximal response (EC50) in experiment [1] (range class) and in experiment [2] (range class) was under 5.46 nM in each case.
In the case of `COc1ccc2c(O[C@@H]3C[C@H]4C(=O)N[C@]5(C(=O)NS(=O)(=O)C6CC6)C[C@H]5/C=C\CC[C@@H](C)C[C@@H](C)[C@H](NC(=O)O[C@@H]5C[C@@H]6C[C@@H]6C5)C(=O)N4C3)nc(-c3ccc(N4CCOCC4)cc3)cc2c1` [Compound 5195, (1R,3r,5S)-bicyclo[3.1.0]hexan-3-yl ((2R,6S,7R,9R,13aS,14aR,16aS,Z)-14a-((cyclopropylsulfonyl)carbamoyl)-2-((6-methoxy-3-(4-morpholinophenyl)isoquinolin-1-yl)oxy)-7,9-dimethyl-5,16-dioxo-1,2,3,5,6,7,8,9,10,11,13a,14,14a,15,16,16a-hexadecahydrocyclopropa[e]pyrrolo[1,2-a][1,4]diazacyclopentadecin-6-yl)carbamate], the concentration giving a half-maximal response (EC50) in experiment [1] (range class) and in experiment [2] (range class) was under 5.46 nM throughout.
For the molecule `COc1ccc2c(O[C@@H]3C[C@H]4C(=O)N[C@]5(C(=O)NS(=O)(=O)C6CC6)C[C@H]5/C=C\CC[C@H](C)C[C@@H](C)[C@H](NC(=O)O[C@@H]5C[C@@H]6C[C@@H]6C5)C(=O)N4C3)nc(-c3ccc(OC(C)C)cn3)cc2c1` [Compound 5208, (1R,3r,5S)-bicyclo[3.1.0]hexan-3-yl ((2R,6S,7R,9S,13aS,14aR,16aS,Z)-14a-((cyclopropylsulfonyl)carbamoyl)-2-((3-(5-isopropoxypyridin-2-yl)-6-methoxyisoquinolin-1-yl)oxy)-7,9-dimethyl-5,16-dioxo-1,2,3,5,6,7,8,9,10,11,13a,14,14a,15,16,16a-hexadecahydrocyclopropa[e]pyrrolo[1,2-a][1,4]diazacyclopentadecin-6-yl)carbamate], the EC50 in experiment [1] (range class) and in experiment [2] (range class) was under 5.46 nM each time.
Regarding `COc1ccc2c(O[C@@H]3C[C@H]4C(=O)N[C@]5(C(=O)NS(=O)(=O)C6CC6)C[C@H]5/C=C\CC[C@@H](C)C[C@@H](C)[C@H](NC(=O)O[C@@H]5C[C@@H]6C[C@@H]6C5)C(=O)N4C3)nc(-c3ccc(OC(C)C)cn3)cc2c1` [Compound 5209, (1R,3r,5S)-bicyclo[3.1.0]hexan-3-yl ((2R,6S,7R,9R,13aS,14aR,16aS,Z)-14a-((cyclopropylsulfonyl)carbamoyl)-2-((3-(5-isopropoxypyridin-2-yl)-6-methoxyisoquinolin-1-yl)oxy)-7,9-dimethyl-5,16-dioxo-1,2,3,5,6,7,8,9,10,11,13a,14,14a,15,16,16a-hexadecahydrocyclopropa[e]pyrrolo[1,2-a][1,4]diazacyclopentadecin-6-yl)carbamate], the 50% effective concentration (EC50) in experiment [1] (range class) and in experiment [2] (range class) was under 5.46 nM each time.
